The source of these data is patent US5403850A, “Derivatives of P-substituted phenyl ester of pivalic acid” (Ono Pharmaceutical Co., Ltd., priority 1988, dated 1995).

The target of this test is T1, elastase from human neutrophil (Homo sapiens, UniProt P08246).
T1 construct: elastase from human neutrophil; from tissue; host or cells: human neutrophil
T1 sequence (P08246 30-247 limits assumed): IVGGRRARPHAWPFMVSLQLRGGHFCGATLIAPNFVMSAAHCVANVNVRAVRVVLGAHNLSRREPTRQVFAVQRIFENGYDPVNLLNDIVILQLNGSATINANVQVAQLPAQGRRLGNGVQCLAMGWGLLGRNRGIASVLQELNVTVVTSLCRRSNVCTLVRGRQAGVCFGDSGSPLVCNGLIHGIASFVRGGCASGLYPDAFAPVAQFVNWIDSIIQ
The experiment in a line: Inhibitory effect on elastase (spectrophotometric, Suc-Ala-Pro-Ala-pNA substrate). It counts as biochemical. As to conditions: 1 mM Suc-Ala-Pro-Ala-pNA, tris-hydrochloric acid pH 8.0, 37° C. for 30 minutes, absorbance 405 nm. Here is the method:
The reaction mixture consisted of 1 mM Suc-Ala-Pro-Ala-pNA (dissolving in N-methylpyrrolidone to the concentration of 100 mM, and then adding 1/100 amount of the solution to the reaction mixture.), 0.1 M buffer solution of tris-hydrochloric acid (pH 8.0), 0.2 M sodium chloride aqueous solution, the sample solution of various concentrations and enzyme solution in a final volume of 1.0 ml was incubated at 37° C. for 30 minutes.
Inhibition percentage of the test compounds was calculated by the following equation: [formula]

Structures can show the parent of a compound that is named as a salt.

As a reminder, the IC50 is the concentration that inhibits the measured activity by half.

For the compound `CSCCC(NC(=O)c1ccccc1NS(=O)(=O)c1ccc(OC(=O)C(C)(C)C)c(C)c1)C(=O)O` (racemic) [2(68), N-[o-(3-methyl-4-pivaloyloxybenzene)sulfonylaminobenzoyl]-dl-methionine], the midpoint of inhibition, the IC50, lay at 200 nM.
As for `CC(C)(C)C(=O)Oc1ccc(S(N)(=O)=O)cc1` [1(2), p-sulfamoylphenyl ester of pivalic acid], the figure is 770 nM; as for `CC(C)(C)C(=O)Oc1ccc(S(=O)(=O)NC2CCCCC2)cc1` [1(3), p-(N-cyclohexylsulfamoyl)phenyl ester of pivalic acid], 42 nM.
With `CC(C)(C)C(=O)Oc1ccc(S(=O)(=O)Nc2ccc(Cl)cc2)cc1` [1(8), p-[N-(4-chlorophenyl)sulfamoyl] phenyl ester of pivalic acid] the figure was 30 nM; with `CC(C)(C)C(=O)Oc1ccc(S(=O)(=O)n2ccnc2)cc1` [1(12), p-[(1-imidazolyl)sulfonyl]phenyl ester of pivalic acid], 50 nM.
As for `CC(C)(C)C(=O)Oc1ccc(S(=O)(=O)Nc2ccccn2)cc1` [1(14), p-[N-(α-pyridyl)sulfamoyl]phen-yl ester of pivalic acid], the figure is 190 nM; as for `CC(=O)Oc1ccc(N(S(=O)(=O)c2ccc(OC(=O)C(C)(C)C)cc2)S(=O)(=O)c2ccc(OC(=O)C(C)(C)C)cc2)cc1` [1(15)], 48 nM.
For the compound `CC(C)(C)NS(=O)(=O)c1ccc(OC(=O)C(C)(C)C)cc1` [2(5), p-(N-tert-butylsulfamoyl)phenyl ester of pivalic acid], the IC50 was 53 nM.
With `CCN(CC)C(=O)COC(=O)c1ccccc1NS(=O)(=O)c1ccc(OC(=O)C(C)(C)C)c(C)c1` [2(38), 2-methyl-4-[N-(o-(N,N-diethyl-carbamoylmethoxycarbonyl)phehyl)sulfamoyl]phenyl ester of pivalic acid] the figure was 72 nM; with `Cc1cc(S(=O)(=O)Nc2cccc3c2OC(C(=O)O)CO3)ccc1OC(=O)C(C)(C)C` (stereo not shown) [2(49), 2-methyl-4-[N-(1,4-dioxa-2-carboxy-8-yl-naphthalene)sulfamoyl]phenyl ester of pivalic], 150 nM.
`Cc1cc(S(=O)(=O)Nc2ccccc2OCCCC(=O)O)ccc1OC(=O)C(C)(C)C` [2(51), 2-methyl-4-[N-(o-carboxypropoxy-phenyl)sulfamoyl]phenyl ester of pivalic acid] came in with an IC50 of 640 nM.
`Cc1cc(S(=O)(=O)Nc2ccccc2C(=O)N2CCC[C@H]2C(=O)O)ccc1OC(=O)C(C)(C)C` [2(62), 2-methyl-4-[N-(2-prolylcarbonylphenyl)sulfamoyl] phenyl ester of pivalic acid] displayed an IC50 of 690 nM.
`Cc1cc(S(=O)(=O)Nc2ccccc2C(=O)N[C@@H](Cc2ccccc2)C(=O)O)ccc1OC(=O)C(C)(C)C` [2(67), N-[o-(3-methyl-4-pivaloyloxybenzene)sulfonylaminobenzoyl]-L-phenylalanine] registered a half-maximal inhibitory concentration (IC50) of 410 nM.
The compound `Cc1cc(S(=O)(=O)Nc2ccccc2C(=O)N[C@@H](CCCCN)C(=O)O)ccc1OC(=O)C(C)(C)C` [2(69), N-[o-(3-methyl-4-pivaloyloxybenzene)sulfonylaminobenzoyl]-L-lysine. hydrochloride] returned a concentration for half-maximal inhibition (IC50) of 520 nM.
For the compound `CSc1ccc(NS(=O)(=O)c2ccc(OC(=O)C(C)(C)C)cc2)c(C(=O)NCC(=O)O)c1` [2(80), N-[5-methylthio-2-(p-pivaloyoxy-benzene)sulfonylaminobenzoyl] glycine], the IC50 worked out at 21 nM. This IC50 is about 25-fold lower than that of the compound before.
In the case of `CCCSc1ccc(NS(=O)(=O)c2ccc(OC(=O)C(C)(C)C)cc2)c(C(=O)NCC(=O)O)c1` [2(87), N-[2-(p-pivaloyloxybenzene)sulfonylamino-5-propylthiobenzoyl] glycine], half-maximal inhibition (IC50) required 24 nM.
Compound `CC(C)(C)C(=O)Oc1ccc(S(=O)(=O)NCCc2ccccc2)cc1` [4(5), p-(N-phenethylsulfamoyl)phenyl ester of pivalic acid] came in with an IC50 of 72 nM.
`CC(C)(C)C(=O)Oc1ccc(S(=O)(=O)Nc2ccccc2C(=O)O)cc1` [5(3), p-[N-(o-carboxyphenyl)sulfamoyl] phenyl ester of pivalic acid] had an IC50 of 23 nM.
Turning to `CN(c1ccc(Br)cc1)S(=O)(=O)c1ccc(OC(=O)C(C)(C)C)cc1` [Example 1, p-[N-(p-bromophenyl)-N-methylsulfamoyl] phenyl ester of pivalic], the IC50 is 31 nM.
